Data published in US20020055094A1 (priority 1996, published 2002).
Like-named read-outs stand apart in the source and are kept apart here.

Columns and labels:
[1] = biological target: whole virus influenza neuraminidase, influenza B strain B/Vic/02/87 (Influenza B virus, UniProt P27907); type: biochemical; details: read-out: Binding Constants (M) / inhibition constants (IC50), B/Vic/02/87
[2] = system: influenza A NWS/Tokyo (H1N2); type: binding
[3] = biological target: whole virus influenza neuraminidase, influenza A strain NWS/Tokyo (Influenza A virus, UniProt P06820); assay: biochemical
Chain of whole virus influenza neuraminidase, influenza A strain NWS/Tokyo (P06820 whole entry, looked up): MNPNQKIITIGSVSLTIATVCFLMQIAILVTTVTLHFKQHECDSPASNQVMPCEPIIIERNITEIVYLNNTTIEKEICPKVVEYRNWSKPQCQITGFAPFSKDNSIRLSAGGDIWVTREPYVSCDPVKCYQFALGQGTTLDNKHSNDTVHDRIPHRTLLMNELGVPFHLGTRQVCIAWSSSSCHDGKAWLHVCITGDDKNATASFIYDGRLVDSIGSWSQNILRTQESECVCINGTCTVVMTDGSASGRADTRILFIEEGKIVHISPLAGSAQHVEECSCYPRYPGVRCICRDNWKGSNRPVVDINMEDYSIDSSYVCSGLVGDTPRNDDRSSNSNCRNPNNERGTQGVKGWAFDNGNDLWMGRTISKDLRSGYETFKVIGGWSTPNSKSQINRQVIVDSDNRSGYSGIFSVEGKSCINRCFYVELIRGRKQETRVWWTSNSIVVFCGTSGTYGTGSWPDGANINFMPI

Chain of whole virus influenza neuraminidase, influenza B strain B/Vic/02/87 (P27907 whole entry, looked up): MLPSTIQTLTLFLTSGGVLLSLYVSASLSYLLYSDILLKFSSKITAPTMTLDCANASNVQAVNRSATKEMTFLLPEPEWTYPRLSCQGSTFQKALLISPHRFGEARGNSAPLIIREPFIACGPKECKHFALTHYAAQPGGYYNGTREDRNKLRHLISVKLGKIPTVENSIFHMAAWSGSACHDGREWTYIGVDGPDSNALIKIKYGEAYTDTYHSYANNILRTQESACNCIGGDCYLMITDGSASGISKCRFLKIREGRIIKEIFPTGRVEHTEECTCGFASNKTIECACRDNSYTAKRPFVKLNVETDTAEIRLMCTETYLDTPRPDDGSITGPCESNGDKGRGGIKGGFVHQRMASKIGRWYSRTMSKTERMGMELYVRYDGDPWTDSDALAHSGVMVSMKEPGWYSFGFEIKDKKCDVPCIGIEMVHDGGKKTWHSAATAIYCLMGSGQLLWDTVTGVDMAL

Compound	IC50 [3]	further results
5-acetamido-7-{6′-[6″-(6″′-biotinylaminocaproyl) -tri-amingcaroyl]-aminohexyl}-carbamoyloxy-4-guanidino -2,3,4,5-tetradeoxy-D-glycero-D-gaacto-non-2-enopyranosonic acid [Compound No. 26]		IC50 [1]: 4e-08 M; compound concentration giving the best results [2]: 0.1 µM; virus amount readily detected [2]: 2.5×10^5 pfu/well
CC(=O)N[C@H]1[C@H]([C@H](OC(=O)NCCCCCCNC(=O)NCCCCCCN)[C@H](O)CO)OC(C(=O)O)=C[C@@H]1NC(=N)N [Compound No. 8, 5-acetamido-7-[6′-(6″-aminohexylureido)-hexyl]-carbamoyloxy-4-guanidino-2,3,4,5-tetradeoxy-D-glycero-D-galacto-non-2-enopyranosonic acid]	4e-08 M	
CC(=O)N[C@H]1[C@H]([C@H](OC(=O)NCCCCCCNC(=O)CNC(=O)CNC(=O)CNC(=O)CCCC[C@@H]2SC[C@@H]3NC(=O)N[C@@H]32)[C@H](O)CO)OC(C(=O)O)=C[C@@H]1NC(=N)N [Compound No. 21, 5-acetamido-7-(6′-biotinylamino-tricrlycinamido-hexy) -carbamoyloxy-4-guanidino-2,3,4,5-tetradeoxy-D-glycerQ-D-galacto-non-2-enopyranosonic acid]	4e-08 M	
CC(=O)N[C@H]1[C@H]([C@H](OC(=O)NCCCCCCN)[C@H](O)CO)OC(C(=O)O)=C[C@@H]1NC(=N)N [compound 11, 5-acetamido-7-(6′-aminohexyl)-carbamoyloxy-4-guanidino-2,3,4,5-tetradeoxy-D-glycero-D-galacto-non-2-enopyranosonic acid]	2e-08 M	
CC(=O)N[C@H]1[C@H]([C@H](OC(=O)NCCCCCCNC(=O)OC(C)(C)C)[C@H](O)CO)OC(C(=O)O)=C[C@@H]1NC(=N)N [compound 13, 5-acetamido-7-(6′-tert-butoxycarbonylaminohexyl)-carbamoyloxy-4-guanidino-2,3,4,5-tetradeoxy-D-glycero-D-galacto-non-2-enopyranosonic acid]	2e-08 M	
CC(=O)N[C@H]1[C@H]([C@H](OC(=O)NCCOCCOCCN)[C@H](O)CO)OC(C(=O)O)=C[C@@H]1NC(=N)N [compound 17, 5-acetamido-7-{2-[2-(2-aminoethoxy)-ethoxy]-ethyl}-carbamoyloxy-4-guanidino-2,3,4,5-tetradeoxy-D-glycero-D-galacto-non-2-enopyranosonic acid]	2e-08 M	
CC(=O)N[C@H]1[C@H]([C@H](OC(=O)NCCCCCCNC(=O)CCCC[C@@H]2SC[C@@H]3NC(=O)N[C@@H]32)[C@H](O)CO)OC(C(=O)O)=C[C@@H]1NC(=N)N [compound 19, 5-acetamindo-7-(6′-biotinylaminohexyl),carbamoyloxy-4-guanidino-2,3,4,5-tetradeoxy-D-crlvero-D-galacto-non-2-enopyranosonic acid]	1e-08 M	
CC(=O)N[C@H]1[C@H]([C@H](OC(=O)NCCCCCCNC(=O)NCCCCCCNC(=O)OC(C)(C)C)[C@H](O)CO)OC(C(=O)O)=C[C@@H]1N [compound 20, 5-acetamido-4-amino-7-[6′-(6″-tert-butoxycarbonyl-aminohexylureido) -hexyl]-carbamoyloxy-2,3,4,5-tetradeoxy-D-glycero-D-galacto-non-2-enopyanosonic acid]	1e-05 M	
CC(=O)N[C@H]1[C@H]([C@H](OC(=O)NCCCCCCNC(=O)CCCCCCCCCCCNC(=O)CCCC[C@@H]2SC[C@@H]3NC(=O)N[C@@H]32)[C@H](O)CO)OC(C(=O)O)=C[C@@H]1NC(=N)N [compound 22, 5-Acetamido-7-(6′-biotinylamino-dodecanoyl-aminohexyl) -carbamoyl-4-guanidino-2,3,4,5-tetradeoxy-D-glycero-D-galacto-non-2-enopyranosonic acid]	3e-08 M	
CC(=O)N[C@H]1[C@H]([C@H](OC(=O)NCCCCCCNC(=O)CCCCCNC(=O)CCCC[C@@H]2SC[C@@H]3NC(=O)N[C@@H]32)[C@H](O)CO)OC(C(=O)O)=C[C@@H]1NC(=N)N [compound 23, 5-Acetamido-7-(6′-biotinylamino-caproyl-aminohexyl) -carbamoyl-4-guanidino-2,3,4,5-tetradeoxy-D-glycero-D-galacto-non-enopyranosonic acid]	2e-08 M	
CC(=O)N[C@H]1[C@H]([C@H](OC(=O)NCCCCCCNC(=O)CCCCCNC(=O)CCCCCNC(=O)CCCCCNC(=O)CCCCCN)[C@H](O)CO)OC(C(=O)O)=C[C@@H]1NC(=N)N [compound 25, 5-acetamido-7-(6′-(6″-(6″′-aminocaproyl) -triaminocaproyl) -aminohexyl) -carbamoyloxy-4-guanidino-2,3,4,5-tetradeoxy-D-glycero-D-galacto-non-2-enopyranosonic acid]	5e-08 M	
DANA [reference compound]		IC50 ([3]; read-out: Binding Constants (M) / inhibition constants (IC50), NWS/Tokyo): 4e-05 M
